In patent US20070185104A1, “Benzoxazole acetonitriles” (APPLIED RESEARCH SYSTEMS ARS HOLDING N.V., priority 2003, published 2007):

What follows are compounds tested against human GSK3 beta (Homo sapiens, UniProt P49841) (assay: GSK3β in vitro assay (33P-ATP phosphorylation of phospho GS2 peptide)). Conditions: In vitro potency on human GSK3 beta; read-out: IC50 (μM) GSK3beta.
Type: biochemical
Description: GSK3β Assay (see Bioorg. Med. Chem. Lett by Naerum et al. 12 p. 1525-1528 (2002))
In a final reaction volume of 25 μl, GSK3β (h) (5-10 mU) is incubated with 8 mM MOPS pH 7.0, 0.2 mM EDTA, 20 μM […](p)EDEEE (being the GSK3 substrate; a phospho GS2 peptide), 10 mM Mg Acetate and [γ-^33P-ATP] (Specific activity approx. 500 cpm/pmol, concentration as required). The reaction is initiated by the addition of Mg^2+ [γ-^33P-ATP]. After incubation for 40 minutes at room temperature, the reaction is stopped by the addition of 5 μl of a 3% phosphoric acid solution. 10 μl of the reaction is then spotted onto a P30 filtermat and washed three times for 5 minutes in 50 mM phosphoric acid and once in methanol prior to drying and the degree of phosphorylation of the substrate is determined by scintillation counting.

Chain of human GSK3 beta (P49841 whole entry): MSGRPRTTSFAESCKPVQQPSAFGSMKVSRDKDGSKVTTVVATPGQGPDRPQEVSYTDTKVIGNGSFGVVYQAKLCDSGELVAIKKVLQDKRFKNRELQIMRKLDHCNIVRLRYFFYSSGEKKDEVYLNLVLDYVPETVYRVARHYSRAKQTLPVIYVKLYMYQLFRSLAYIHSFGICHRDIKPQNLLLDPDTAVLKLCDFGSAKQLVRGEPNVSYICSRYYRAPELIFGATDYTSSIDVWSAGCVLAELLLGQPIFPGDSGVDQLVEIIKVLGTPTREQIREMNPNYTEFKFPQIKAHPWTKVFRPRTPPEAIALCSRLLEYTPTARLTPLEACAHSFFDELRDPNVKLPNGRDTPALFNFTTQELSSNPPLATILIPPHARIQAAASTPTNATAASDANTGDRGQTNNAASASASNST

| Structure (SMILES) | IC50 [µM] |
| --- | --- |
| CCN1CCN(c2cc(/C(C#N)=C3/Nc4ccccc4O3)ncn2)CC1 [Example 49, 1,3-benzoxazol-2(3H)-ylidene[6-(4-ethylpiperazin-1-yl)pyrimidin-4-yl]acetonitrile] | < 10 |
| N#C/C(=C1\Nc2ccccc2O1)c1ccnc(NC2CC2)n1 [Example 10, 1,3-benzoxazol-2(3H)-ylidene[2-(cyclopropylamino)pyrimidin-4-yl]acetonitrile] | < 10 |
| Cc1cc(/C(C#N)=C2/Nc3ccccc3O2)nc(NCCCn2cncn2)n1 [Example 47] | < 10 |
| CN(C)CCCC(=O)Nc1nccc(/C(C#N)=C2/Nc3ccccc3O2)n1 [Example 89, N-{4-[1,3-benzoxazol-2(3H)-ylidene(cyano)methyl]-2-pyrimidinyl}-4-(dimethylamino)butanamide] | < 10 |
| CC(C)OCCCNc1nccc(/C(C#N)=C2/Nc3ccccc3O2)n1 [Example 42, 1,3-benzoxazol-2(3H)-ylidene{2-[(3-isopropoxypropyl)amino]pyrimidin-4-yl}acetonitrile] | < 10 |
| N#C/C(=C1\Nc2ccccc2O1)c1ccnc(NCc2cccnc2)n1 [Example 41, 1,3-benzoxazol-2(3H)-ylidene{2-[(pyridin-3-ylmethyl)amino]pyrimidin-4-yl}acetonitrile] | < 10 |
| CC(=O)N1CCN(C(=O)CCCNc2nccc(/C(C#N)=C3\Nc4ccccc4O3)n2)CC1 [Example 70, (2-{[4-(4-acetyl-1-piperazinyl)-4-oxobutyl]amino}-4-pyrimidinyl)(1,3-benzoxazol-2(3H)-ylidene)ethanenitrile] | < 10 |

Each compound was assayed on db/db mice (assay: Experimental model of type II diabetes (oral postprandial glycemia in db/db mice)). Conditions: p.o. 50 mg/kg, 4 hrs after drug administration, food intake after 20 h fasting, compared to vehicle Group 1.
Type: in vivo
Description: b) In vivo Assay: Experimental Model of Type II Diabetes (Oral Postprandial Glycemia in db/db Mice)
The following assay aims at determining the anti-diabetic effect of the test compounds of formula (I) in a model of postprandial glycemia in db/db mice, in vivo.
The assay was performed as follows:
A total of 24 db/db mice (about 8-9 weeks; obtained from IFFACREDO, l'Arbreste, France) were fasted during 20 hours.
2 groups, each consisting of 6 animals were formed: • Group 1: The animals were administered (per os) a dose of 10 mg/kg of vehicle. • Group 2: The animals were administered (per os) a dose of 50 mg/kg of the test compound according to formula (I).
After oral administration of the compounds of formula (I) solubilized or suspended in CarboxyMethylCellulose (0.5%), Tween 20 (0.25%) and water as vehicle, the animals had access to commercial food (D04, UAR, Villemoisson/Orge, France) ad libitum. The diabetic state of the mice was verified by determining the blood glucose level before drug administration. Blood glucose and serum insulin levels were then determined 4 hrs after drug administration.
The determination of the blood glucose level was performed using a glucometer (Precision Q.I.D., Medisense, Abbot, ref. 212.62.31). […]
Changes in blood glucose and serum insulin of drug treated mice were expressed as a percentage of control (group 1: vehicle treated mice).

| Structure (SMILES) | blood glucose level reduced (percentage of vehicle control) |
| --- | --- |
| N#C/C(=C1\Nc2ccccc2O1)c1ccnc(NCCCN2CCCC2=O)n1 [Example 5, 1,3-benzoxazol-2(3H)-ylidene(2-{[3-(2-oxopyrrolidin-1-yl)propyl]amino}pyrimidin-4-yl)acetonitrile] | about 25% |

Same assay, conditions: p.o. 50 mg/kg, serum insulin 4 hrs after drug administration, compared to vehicle Group 1

| Structure (SMILES) | insulin level reduced (percentage of vehicle control) |
| --- | --- |
| N#C/C(=C1\Nc2ccccc2O1)c1ccnc(NCCCN2CCCC2=O)n1 [Example 5, 1,3-benzoxazol-2(3H)-ylidene(2-{[3-(2-oxopyrrolidin-1-yl)propyl]amino}pyrimidin-4-yl)acetonitrile] | about 11% |
